Patent publication US6046238A, “Method for treating or preventing the spread of acne vulgaris” (TriStrata, Inc., priority 1999, dated 2000)
Converted amounts (≈) assume the structure as drawn. “Also recorded” adds a separate entry of the source. Read-outs that look alike come from different tables or passages of the source.

Legend:
Staphylococcus aureus = test: MIC Agar Dilution Test, Staphylococcus aureus; type: cell-based; conditions: S. aureus
From the text: (§1) The following strains of microorganisms were used in Minimum Inhibitory Concentration (MIC) tests for phenyl 2-acetoxyethanoic acid in this example and for benzoyl peroxide, chlorhexidine gluconate and triclosan in the following examples. In total, five strains were used for S. aureus, five strains were used for S. epidermidis, two strains were used for M. sedentarius, three strains were used for M. luteus, two strains were used for B. epidermis, three strains were used for C. minutissium, one strain was used for S. marcescens, three strains were used for P. aeruginosa, four strains were used for E. coli, and thirty-two strains were used for P. acnes.
(§2) Antimicrobial effects were determined based on MIC Agar Dilution Test utilizing Trypticase Soy Agar II (BBL) incorporation plates with and without 10% intralipid (Kabi Pharmacia Inc.). Initially, phenyl 2-acetoxyethanoic acid was prepared as a 2 mg/ml (0.2%) solution in water. This solution with serial dilution was incorporated into the test agar plates. The MIC test gave similar results when the same species but a different strain was used.
(§3) Under the same test conditions described in Example 1, benzoyl peroxide was prepared as a 2.5 mg/ml (0.25%) solution in water. This solution with serial dilution was incorporated into the test agar plates. Typical test results are shown as follows.
(§4) Under the same test conditions described in Example 1, chlorhexidine gluconate was prepared as a 2 mg/ml (0.2%) solution in water. This solution with serial dilution was incorporated into the test agar plates. Typical test results are shown as follows.
(§5) Under the same test conditions described in Example 1, triclosan was prepared as a 10 mg/ml (1%) solution in water. This solution with serial dilution was incorporated into the test agar plates. Typical test results are shown as follows.
(§6) Ten different species of bacteria were used in Minimum Inhibitory Concentration (MIC) tests. The bacteria include S. aureus, S. epidermidis,M. sedentarius, M. luteus, B. epidermis, C. minutissium, S. marcescens, P. aeruginosa, E. coli, and P. acnes. In addition various sources and strains of these bacteria were also included in the tests, and up to 32 different strains of P. acnes were used.
(§7) The test substance selected from phenyl 2-acetoxyethanoic acid, benzoyl peroxide, chlorhexidine gluconate and triclosan was dissolved in water, and the solution with serial dilution was incorporated into the test agar plates. The plates containing different concentrations of test substance were inoculated with a strain of bacterium. MIC is defined as the lowest concentration of the test substance in the plate in which there is no growth of the microorganism.

Micrococcus luteus = test: MIC Agar Dilution Test, Micrococcus luteus; type: cell-based; conditions: M. luteus
From the text: as §1, §2, §3, §4, §5, §6, §7

Pseudomonas aeruginosa = test: MIC Agar Dilution Test, Pseudomonas aeruginosa; type: cell-based; conditions: P. aeruginosa
From the text: as §1, §2, §3, §4, §5, §6, §7

Escherichia coli = test: MIC Agar Dilution Test, Escherichia coli; type: cell-based; conditions: E. coli
From the text: as §1, §2, §3, §4, §5, §6, §7

Propionibacterium acnes = test: MIC Agar Dilution Test, Propionibacterium acnes; type: cell-based; conditions: for MIC: Cutibacterium acnes
From the text: as §1, §2, §3, §4, §5, §6, §7

[1] = axillary antiodor effectiveness (treatment); type: in vivo, human; conditions: 0.5%
From the text: In another study the subjects were instructed not to take a shower in the morning. After the foul odor developed in both axillae, the subjects were instructed to apply the test composition containing 0.5% phenyl 2-acetoxyethanoic acid or diphenyl 2-acetoxyethanoic acid on the left underarm area and the control vehicle on the right underarm area. Topical applications were made once daily for several days.
Usually the left underarm ceased emanating any detectable foul odor after 1 day of topical use. The subjects were instructed at this time to apply the test composition containing 0.5% phenyl 2-acetoxyethanoic acid or diphenyl 2-acetoxyethanoic acid on the right underarm area also. Topical applications were made once daily for several days. The right axilla ceased to emanate any detectable foul odor after 1 to 2 days of topical use.

[2] = prevention and treatment of foot malodor; type: in vivo, human; conditions: 1% in talc powder
Protocol: A typical test for prophylactic effect in preventing the development of, as well as treatment of, foot malodor was carried out as follows. A test composition in powder form was prepared by mixing 1 g of finely powdered phenyl 2-acetoxyethanoic acid with 99 g of talc powder. The talc powder alone was used as a control vehicle.
A human subject had persistent foot malodor all year round. […] On the first morning, the subject was instructed to spread the test composition lightly on the left foot and also inside the hose. The control vehicle was used on the right foot and inside the hose. […] The subject was then instructed to apply the test composition on both feet the second morning.
A total of six subjects (three females; three males) participated in several studies.
A test composition containing 1% phenyl 2-acetoxyethanoic acid in powder form was prepared by mixing thoroughly 1 g of finely powdered compound with 99 g of talc powder. The talc powder alone was used as a control vehicle. The test composition and the control vehicle were packaged in one-ounce powder containers. The participating subjects were instructed to lightly spread the test composition on the bottom of the left foot and inside the hose or sock on the first morning.
The criteria for ineffectiveness or effectiveness of the test composition were based on presence or absence of malodor as detected by olfactory sense of smell. Both feet were monitored by the subject and at least one other person in the evening.
The subjects were then instructed to apply the test composition on both feet the next morning. […] The same topical applications were continued by all the participants for several days to confirm the above results.

[3] = topical treatment of nail infections; type: in vivo, human; conditions: non-synergistic composition, twice daily
From the text: The participating subjects in the present study were instructed to apply twice daily the composition containing phenyl 2-acetoxyethanoic acid or diphenyl 2-acetoxyethanoic acid with or without clotrimazole as an additional antimicrobial agent.
In order to determine the antimicrobial effect of an aryl 2-acetoxyethanoicacid, a standard test method of Minimum Inhibitory Concentration (MIC) against the growth of 10 bacteria was used. To determine a prophylactic effect against the development of, as well as a topical effect in the treatment of, body foul door, eleven human subjects participated in this study. […] Scientific and test results are overviewed as follows.

[4] = topical treatment of folliculitis and perifolliculitis; type: in vivo, human; conditions: 0.9%, twice daily; nine patients
Protocol: Nine patients having various degrees of folliculitis and perifolliculitis participated in this study. A test composition containing 0.9% phenyl 2-acetoxyethanoic acid or diphenyl 2-acetoxyethanoic acid was prepared by dissolving 0.9 g compound in 79.1 ml 2-propanol, 15 ml butane-1,3-diol and 5 ml nonoxynol-6. The composition was packaged in one-ounce bottles. The patients were instructed to apply the test composition twice daily on the infected skin lesions and involved areas. Topical applications were continued up to 8 weeks.

[5] = 10% intralipid, read-out: MIC Lipid
[6] = no lipid, read-out: MIC No Lipid

With `CC(=O)OC(C(=O)O)c1ccccc1` (centres unmarked) [phenyl 2-acetoxyethanoic acid] the MIC (Staphylococcus aureus; [5]) was 500 µg/mL (≈ 2.57 mM), the MIC (Staphylococcus aureus; [6]) was 500 µg/mL (≈ 2.57 mM) and the MIC (Micrococcus luteus; [5]) was 1000 µg/mL (≈ 5.15 mM). For the same molecule, the MIC (Micrococcus luteus; [6]) was 1000 µg/mL (≈ 5.15 mM), the MIC (Pseudomonas aeruginosa; [5]) was 1000 µg/mL (≈ 5.15 mM) and the MIC (Pseudomonas aeruginosa; [6]) was 1000 µg/mL (≈ 5.15 mM). The MIC (Escherichia coli; [5]) was 1000 µg/mL (≈ 5.15 mM), the MIC (Escherichia coli; [6]) was 1000 µg/mL (≈ 5.15 mM) and the MIC (Propionibacterium acnes; P. acnes, 10% intralipid, read-out: MIC Lipid) was 250 µg/mL (≈ 1.29 mM). It also gave an MIC (Propionibacterium acnes; P. acnes, no lipid, read-out: MIC No Lipid) of 250 µg/mL (≈ 1.29 mM), an MIC (Propionibacterium acnes; even in the presence of 10% lipid materials, read-out: concentration specifically effective against the growth of P. acnes) of 250 µg/mL and an MIC (Propionibacterium acnes; in the presence of 10% lipid materials, read-out: concentration effective against P. acnes) of 250 µg/mL. For the same molecule, the “inhibitory effect against P. acnes, compared” value (Propionibacterium acnes; with or without lipid materials, same test conditions as comparators) was “most active and effective compound against P. acnes”, the “overall axillary antiodor effectiveness” value ([1]; topical) was “topically effective in eradicating the axillary foul odor” and the “left axilla on continued use” value ([1]; continued, once daily for several days) was “continued to maintain the condition free of any offensive foul odor”. For the same molecule, the “time after which left underarm usually ceased emanating any detectable foul odor” value ([1]; no-shower study, left side) was 1 days, the “intensity of foul odor, left underarm” value ([1]; no-shower study, once daily) was “diminished in intensity of foul odor after one to two days of topical application” and the “time after which left underarm ceased emanating any detectable foul odor” value ([1]; Example 6, once daily, one person, left side) was 1 days. For the same molecule, the “time after which right axilla ceased to emanate any detectable foul odor” value ([1]; Example 6, right side, formerly vehicle) was 1 days, the “overall effectiveness against foot malodor” value [2] was “topically effective in preventing the development of and in treating foot malodor; also recorded: topically effective in preventing the development of and was also therapeutically effective for topical treatment of foot malodor” and the “malodor of both feet at the end of the second day” value ([2]; both feet treated) was “produced no detectable malodor”. For the same molecule, the “malodor of left foot by the first evening” value ([2]; left foot treated, right foot vehicle) was “produced no detectable malodor in all the participating subjects”, the “malodor on continued application” value ([2]; several days) was “complete suppression of malodor was sustained” and the “disappearance of nail infections” value [3] was “usually disappeared within one to several months”. The “deeper lesions of papules” value [4] was “eradicated or substantially improved after 4 to 8 weeks of topical applications” and the “superficial folliculitis and perifolliculitis lesions” value [4] was “eradicated or substantially improved after a few days of topical applications”.
